Assay results from US5411879A, “Fatty acyl reductases” (Calgene Inc., priority 1993, dated 1995).
Like-named read-outs stand apart in the source and are kept apart here.

Key:
[1] = target: T1, jojoba acyl-CoA reductase (Simmondsia chinensis, UniProt Q9XGY7); settings: for inhibitory effect on reductase activity (in words): known reductase/synthase inhibitors and sulphydryl blocking agents
T1 sequence (Q9XGY7 1-493): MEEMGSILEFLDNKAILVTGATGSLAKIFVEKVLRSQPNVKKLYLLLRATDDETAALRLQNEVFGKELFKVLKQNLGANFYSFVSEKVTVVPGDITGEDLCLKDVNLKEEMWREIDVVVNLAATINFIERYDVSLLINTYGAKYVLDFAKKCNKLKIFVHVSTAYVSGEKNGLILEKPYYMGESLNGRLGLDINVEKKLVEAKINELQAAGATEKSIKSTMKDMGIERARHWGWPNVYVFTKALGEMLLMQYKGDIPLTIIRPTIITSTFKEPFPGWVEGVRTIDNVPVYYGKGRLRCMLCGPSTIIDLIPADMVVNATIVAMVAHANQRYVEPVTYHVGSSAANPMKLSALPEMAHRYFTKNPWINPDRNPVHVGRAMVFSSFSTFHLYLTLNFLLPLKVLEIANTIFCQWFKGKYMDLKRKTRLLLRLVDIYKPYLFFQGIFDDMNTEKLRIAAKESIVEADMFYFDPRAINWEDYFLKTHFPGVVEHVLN
Experimental: Reductase activity in a microsomal membrane preparation is measured by incubation of 20 μM [1-^14 C]acyl-CoA (usually tetracosenoyl-CoA, sp. act. 2-5 Ci/mol) with the sample to be assayed and 2 mM NADPH, in a total volume of 0.25 ml. The incubation mixture also contains 10% w/v glycerol, 1 mM DTT, and is buffered with 50 mM HEPES (4-[2-hydroxyethyl]-1-piperazineethane-sulfonic acid) (HEPES, here and as refered to hereafter is added from a 1M stock solution adjusted to pH 7.5) .
The assay is started by the addition of acyl-CoA substrate and the incubation is carried out at 30° C. for one hour. The assay is terminated by placing the assay tube on ice and immediately adding 0.25 ml isopropanol:acetic acid (5:1 v/v) . Unlabeled wax esters (0.1 mg) and oleyl alcohol (0.1 mg) are added as carriers. The [^14 C] lipids are extracted by the scaled-down protocol of Hara and Radin (Anal. Biochem. (1978) 90:420). Six ml of hexane/isopropanol (3:2, v/v) is added to the terminated assay. The sample is vortexed, 2 ml of aqueous sodium sulphate solution (5.5% w/v) is added, and the sample is again vortexed.
The microsomal membrane preparation described above is used for further characterization of the reductase enzyme. […] Characterization experiments were conducted at pH 7.5, which is close to the presumed physiological pH of the cytoplasm.
1. Salt Effects: A variety of salts were examined for their effect on reductase activity using a standard concentration of 0.5M for monobasic salts. Salts with divalent cations or anions were examined at 0.167M (to give the same ionic strength as the 0.5M monobasic salts) and also at 0.5M.
4. Reductase Inhibitor Assays: Several known inhibitors of other types of reductase proteins were tested for their effect on the jojoba acyl-CoA reductase activity.
Sulphydryl blocking agents were also screened for their effect on reductase activity.

[2] = system: jojoba acyl-CoA reductase; assay: Acyl (substrate) specificity of the reductase, microsomal membrane preparation; format: biochemical; settings: substrates compared at 10 uM, 0.5M NaCl
Excerpt: (§1) 3. […] NaCl concentration in these assays is 0.5M.

[3] = target: T1, jojoba acyl-CoA reductase; assay: Competitive inhibition experiment, unlabelled palmitoyl-CoA vs [1-14C]tetracosenoyl-CoA; format: biochemical; parameters: The microsomal membrane preparation described above is used for further characterization of the reductase enzyme; from tissue; host or cells: developing jojoba embryos (seed coats removed), microsomal membrane preparation; settings: unlabelled inhibitor 0-30 μM; [1-14C]tetracosenoyl-CoA 20 μM; read-out: concentration giving 50% inhibition of reductase activity towards tetracosenoyl-CoA
[4] = target: T1, jojoba acyl-CoA reductase; assay: Acyl (substrate) specificity of the reductase, microsomal membrane preparation; format: biochemical; parameters: The microsomal membrane preparation described above is used for further characterization of the reductase enzyme; from tissue; host or cells: developing jojoba embryos (seed coats removed), microsomal membrane preparation; settings: acyl-CoA thioester as substrate at 10 μM; 0.5M NaCl; pH 7.5
Excerpt: as §1

[5] = target: T2, jojoba acyl reductase (Simmondsia chinensis, UniProt Q9XGY7); assay: Detergent inhibition of reductase activity and its reversibility; format: biochemical
T2 construct: The microsomal membrane preparation described above is used for further characterization of the reductase enzyme; from tissue; host or cells: developing jojoba embryos (seed coats removed), microsomal membrane preparation
T2 sequence (Q9XGY7 1-493): T1 sequence (Q9XGY7 1-493)
Excerpt: Often, detergents which are used to solubilize membrane proteins are found to inhibit the enzymatic activity of a desired protein. […] However, as apparent detergent inhibition of reductase activity may be due to some effect other than irreversible inhibition of the enzyme, the reversibility of inhibition by CHAPS was examined.
A protocol for solubilizing jojoba acyl reductase activity utilizing the detergent CHAPS has been devised which yields approximately 85% of the reductase activity from the microsomal membrane preparation. This method is discussed in detail in Example 2. Similarly, studies of reversibility of apparent reductase inhibition by other detergents may be conducted to identify other useful detergents for solubilization of acyl reductase activity for jojoba or other candidate reductases.

[6] = system: jojoba acyl-CoA reductase; settings: previously shown, Pollard et al.; cited from earlier work
[7] = 0.5M for monobasic salts, divalent salts at 0.167M and 0.5M
[8] = millimolar concentrations (given for CoA and NADP+)

With `O[C@H](CS)[C@H](O)CS` (racemic) [Dithiothreitol] the “effect on reductase activity (in words)” value ([1]; other effectors, pH 7.5) was “stimulatory”.
With `CCCCCCCCCCCCCCCC(=O)SCCNC(=O)CCNC(=O)[C@H](O)C(C)(C)COP(=O)(O)OP(=O)(O)OC[C@H]1O[C@@H](n2cnc3c(N)ncnc32)[C@H](O)[C@@H]1OP(=O)(O)O` [16:0 Acyl-CoA, palmitoyl-CoA] the “activity as substrate of the reductase (in words)” value [2] was “barely above background” and the IC50 [3] was 5 µM.
With `CCCCCCCCCCCCCCCCCC(=O)SCCNC(=O)CCNC(=O)[C@H](O)C(C)(C)COP(=O)(O)OP(=O)(O)OC[C@H]1O[C@@H](n2cnc3c(N)ncnc32)[C@H](O)[C@@H]1OP(=O)(O)O` [18:0 Acyl-CoA] the “Reductase Activity, Acyl-CoA (10 μM)” value [4] was 1.4 pmol/min/µL.
For `CCCCCCCC/C=C\CCCCCCCCCC(=O)SCCNC(=O)CCNC(=O)[C@H](O)C(C)(C)COP(=O)(O)OP(=O)(O)OC[C@H]1O[C@@H](n2cnc3c(N)ncnc32)[C@H](O)[C@@H]1OP(=O)(O)O` [20:1 Acyl-CoA], the “Reductase Activity, Acyl-CoA (10 μM)” value [4] was 1.0 pmol/min/µL.
In the case of `CCCCCCCC/C=C\CCCCCCCCCCCC(=O)SCCNC(=O)CCNC(=O)[C@H](O)C(C)(C)COP(=O)(O)OP(=O)(O)OC[C@H]1O[C@@H](n2cnc3c(N)ncnc32)[C@H](O)[C@@H]1OP(=O)(O)O` [22:1 Acyl-CoA], the “Reductase Activity, Acyl-CoA (10 μM)” value [4] is reported as 1.0 pmol/min/µL.
In the case of `C[C@H](CCC(=O)NCCC[N+](C)(C)CCCS(=O)(=O)[O-])[C@H]1CC[C@H]2[C@@H]3[C@H](O)C[C@@H]4C[C@H](O)CC[C@]4(C)[C@H]3C[C@H](O)[C@]12C` [CHAPS, 3-[(3-cholamidopropyl)-dimethyl-ammonio]-1-propanesulfonate], the “inhibition of reductase activity by detergent (in words)” value ([5]; at concentrations above the CMC) is reported as “strong inhibition” and the “reversibility of detergent inhibition (in words)” value ([5]; enzyme exposed on ice, then returned to a concentration at or below the CMC) is reported as “complete recovery of reductase activity”.
In the case of `[Ca+2].[Cl-].[Cl-]` [CaCl2], the “salt effect on reductase activity (in words)” value [1, 7] is reported as “stimulate reductase activity”.
With `C/C=C/C/C=C/CCC(=O)[C@H]1O[C@H]1C(N)=O` [Cerulinen] the “inhibitory effect on reductase activity (in words)” value [1] was “no strong inhibitory effect”.
For `CC(C)(COP(=O)(O)OP(=O)(O)OC[C@H]1O[C@@H](n2cnc3c(N)ncnc32)[C@H](O)[C@@H]1OP(=O)(O)O)[C@@H](O)C(=O)NCCC(=O)NCCS` [CoA, CoenzymeA], the “effect on reductase activity (in words)” value [1, 8] was “significant inhibition”.
For `[Cl-].[K+]` [KCl], the “salt effect on reductase activity (in words)” value [1, 7] was “stimulate reductase activity”.
In the case of `N#CS` [KSCN], the “salt effect on reductase activity (in words)” value [1] is reported as “no stimulation or marginal stimulation”.
In the case of `[Cl-].[Li+]` [LiCl], the “salt effect on reductase activity (in words)” value [1, 7] is reported as “stimulate reductase activity”.
With `CC[C@H](C)C(=O)O[C@H]1C[C@@H](C)C=C2C=C[C@H](C)[C@H](CC[C@@H]3C[C@@H](O)CC(=O)O3)[C@H]21` [Mevinolin] the “concentration at which an effect on jojoba acyl-CoA reductase activity was seen” value ([1]; only had an effect at relatively high concentrations) was 100 µM.
For `[Cl-].[Cl-].[Mg+2]` [MgCl2], the “salt effect on reductase activity (in words)” value [1, 7] was “stimulate reductase activity”.
For `CCN1C(=O)C=CC1=O` [N-ethylmaleimide], the “inhibitory effect on reductase activity (in words)” value [1] was “strongly inhibit”.
With `NC(=O)c1ccc[n+]([C@@H]2O[C@H](COP(=O)([O-])OP(=O)(O)OC[C@H]3O[C@@H](n4cnc5c(N)ncnc54)[C@H](O)[C@@H]3O)[C@@H](O)[C@H]2O)c1` [NAD+] the “effect on reductase activity (in words)” value [1, 8] was “marginal effects”.
With `NC(=O)C1=CN([C@@H]2O[C@H](COP(=O)(O)OP(=O)(O)OC[C@H]3O[C@@H](n4cnc5c(N)ncnc54)[C@H](O)[C@@H]3O)[C@@H](O)[C@H]2O)C=CC1` [NADH] the “cofactor-dependent reductase activity relative to the NADPH-dependent activity” value ([1]; cofactor in place of NADPH, not measurable above background) was under 2% and the “effect on reductase activity (in words)” value [1, 8] was “marginal effects”.
In the case of `NC(=O)c1ccc[n+]([C@@H]2O[C@H](COP(=O)([O-])OP(=O)(O)OC[C@H]3O[C@@H](n4cnc5c(N)ncnc54)[C@H](OP(=O)(O)O)[C@@H]3O)[C@@H](O)[C@H]2O)c1` [NADP+], the “effect on reductase activity (in words)” value [1, 8] is reported as “significant inhibition”.
For `O=S(=O)([O-])[O-].[Na+].[Na+]` [Na2 SO4], the “salt effect on reductase activity (in words)” value [1, 7] was “stimulate reductase activity”.
With `[Cl-].[Na+]` [NaCl] the “stimulation of reductase activity” value ([1]; microsomes, 500000 µM) was “Up to 15 fold”.
For `O=C(O)CN(CCN(CC(=O)O)CC(=O)O)CC(=O)O` [ethylenediaminetetraacetic acid], the “optimum concentration for stimulation of reductase activity” value [1] was 2.5 mM and the “effect on reductase activity (in words)” value ([1]; pH 7.5) was “some stimulation”.
In the case of `NC(=O)CI` [iodoacetamide], the “inhibitory effect on reductase activity (in words)” value [1] is reported as “no effect”.
With `O=C(O)c1cc[c]([Hg][OH])cc1` [para-hydroxymercuribenzoate] the “inhibitory effect on reductase activity (in words)” value [1] was “some inhibitory effect”.
In the case of palmitoyl-ACP [16:0 Acyl-ACP], the “activity as substrate of the reductase (in words)” value [2] is reported as “high”.
In the case of stearoyl-ACP, the “activity as substrate of the reductase (in words)” value [6] is listed as “activity as a substrate”.
